Data from patent US7803822B2, “Triazole derivative and use thereof” (Takeda Pharmaceutical Company Limited, priority 2005, dated 2010).
pIC50: −log10 of the molar value.

molecular target: T1, human PAR-1 (Homo sapiens, UniProt P25116); assay: Evaluation of PAR-1 antagonistic action by intracellular calcium concentration variation assay (FLIPR); assay type: cell-based; conditions: human PAR-1-expressing CHO cells, agonist peptide SFLLRN-NH2 final concentration 0.3 nM, Fluo-3AM
T1 construct: expressed in transfected cells; host or cells: CHO-K1 (transformant flag/trn/CHO-K1)
T1 sequence (P25116 22-425): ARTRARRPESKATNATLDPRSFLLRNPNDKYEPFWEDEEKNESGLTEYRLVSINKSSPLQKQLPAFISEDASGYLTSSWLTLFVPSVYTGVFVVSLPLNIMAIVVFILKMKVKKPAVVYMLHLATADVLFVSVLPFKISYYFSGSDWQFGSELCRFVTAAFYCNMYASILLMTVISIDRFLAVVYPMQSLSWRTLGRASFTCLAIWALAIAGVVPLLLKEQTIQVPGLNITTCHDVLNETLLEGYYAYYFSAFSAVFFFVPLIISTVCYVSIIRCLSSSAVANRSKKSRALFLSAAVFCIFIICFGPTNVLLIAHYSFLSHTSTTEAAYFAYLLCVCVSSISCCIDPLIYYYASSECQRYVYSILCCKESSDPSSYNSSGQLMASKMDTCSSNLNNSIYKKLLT
Procedure: Evaluation of PAR-1 Antagonistic Action of Compound by Intracellular Calcium Concentration Variation Assay
Human PAR-1-expressing cells was plated at 3×10^4 cells/well on a 96 well clear bottom plate (Corning 3904 type) and cultured for 16-24 hr. The medium was removed from the wells of the plate, measurement buffer (50 μL, 115 mM NaCl, 5.4 mM KCl, 1.8 mM CaCl2, 0.8 mM MgCl2, 13.8 mM D-glucose, 0.1% BSA, 20 mM HEPES, pH 7.4) containing 2.5 μg/mL of Fluo-3AM (manufactured by Dojindo Laboratories), 0.08% Pluronic F-127 and 2.5 mM Probenecid was added to the cells and the mixture was reacted at 37° C. for 1 hr. The cells were washed twice with the measurement buffer. After addition of the measurement buffer (100 μL), a measurement buffer (50 μL) containing a test compound was added, and the mixture was stood still for 10 min. The plate was moved to a fluorometry image-plate reader (FLIPR-1, manufactured by Molecular Devices). […] The intracellular calcium concentration was measured by FLIPR.

pIC50	Structure (SMILES)
5.72	CCCc1c(C(=O)N2CCc3c([nH]c4ccccc34)C2)nnn1-c1ccc(C(=O)NCC)cc1 [Example 85, N-ethyl-4-[5-propyl-4-(1,3,4,9-tetrahydro-2H-β-carbolin-2-ylcarbonyl)-1H-1,2,3-triazol-1-yl]benzamide]
5.66	CCNC(=O)c1ccc(-n2nnc(C(=O)NC3CC3)c2CCCOCc2ccccc2)cc1 [Example 91, 5-[3-(benzyloxy)propyl]-N-cyclopropyl-1-{4-[(ethylamino)carbonyl]phenyl}-1H-1,2,3-triazole-4-carboxamide]
5.80	CCCc1c(C(=O)NC2CC2)nnn1-c1ccc(C(=O)NC2CCCC2)cc1 [Example 54, 1-{4-[(cyclopentylamino)carbonyl]phenyl}-N-cyclopropyl-5-propyl-1H-1,2,3-triazole-4-carboxamide]
5.85	CCNC(=O)c1ccc(-n2nnc(C(=O)NC3CC3)c2COc2cccc(Cl)n2)cc1 [Example 118, 5-{[(6-chloropyridin-2-yl)oxy]methyl}-N-cyclopropyl-1-{4-[(ethylamino)carbonyl]phenyl}-1H-1,2,3-triazole-4-carboxamide]
6.17	CCCc1c(C(=O)NC2CCCc3ccccc32)nnn1-c1ccc(C(=O)NCC)cc1 (centres unmarked) [Example 89, 1-{4-[(ethylamino)carbonyl]phenyl}-5-propyl-N-(1,2,3,4-tetrahydronaphthalen-1-yl)-1H-1,2,3-triazole-4-carboxamide]
6.02	CCCc1c(C(=O)NC2CC2)nnn1-c1ccc(C(=O)NCC(F)(F)F)cc1 [Example 46, N-cyclopropyl-5-propyl-1-(4-{[(2,2,2-trifluoroethyl)amino]carbonyl}phenyl)-1H-1,2,3-triazole-4-carboxamide]
5.85	CCCc1c(C(=O)NC2CC2)nnn1-c1ccc(C(=O)NCC(C)C)cc1 [Example 52, N-cyclopropyl-1-{4-[(isobutylamino)carbonyl]phenyl}-5-propyl-1H-1,2,3-triazole-4-carboxamide]
5.46	CCCc1c(C(=O)NC2CC2)nnn1-c1ccc(C(=O)NC(C)C)cc1 [Example 49, N-cyclopropyl-1-{4-[(isopropylamino)carbonyl]phenyl}-5-propyl-1H-1,2,3-triazole-4-carboxamide]
6.26	CCCc1c(C(=O)NC2CC2)nnn1-c1ccc(NC(=O)C2CC2)cc1 [Example 4, N-cyclopropyl-1-{4-[(cyclopropylcarbonyl)amino]phenyl}-5-propyl-1H-1,2,3-triazole-4-carboxamide]
5.43	CCCc1c(C(=O)NC2CC2)nnn1-c1ccc(NC(=O)NC)cc1 [Example 31, N-cyclopropyl-1-(4-{[(methylamino)carbonyl]amino}phenyl)-5-propyl-1H-1,2,3-triazole-4-carboxamide]
6.14	CCCc1c(C(=O)NCc2cccc(F)c2)nnn1-c1ccc(C(=O)NCC)cc1 [Example 88, 1-{4-[(ethylamino)carbonyl]phenyl}-N-(3-fluorobenzyl)-5-propyl-1H-1,2,3-triazole-4-carboxamide]
5.92	CCNC(=O)c1ccc(-n2nnc(C(=O)NC3CC3)c2CC2CC2)cc1 [Example 96, N-cyclopropyl-5-(cyclopropylmethyl)-1-{4-[(ethylamino)carbonyl]phenyl}-1H-1,2,3-triazole-4-carboxamide]
5.47	CCCc1c(C(=O)NC2CC2)nnn1-c1ccc(C(=O)NCC)cc1Cl [Example 72, 1-{2-chloro-4-[(ethylamino)carbonyl]phenyl}-N-cyclopropyl-5-propyl-1H-1,2,3-triazole-4-carboxamide]
6.57	CCNC(=O)c1ccc(-n2cc(C(=O)NC3CC3)nn2)c(OCCCc2ccccc2)c1 [Example 133, N-cyclopropyl-1-{4-[(ethylamino)carbonyl]-2-(3-phenylpropoxy)phenyl}-1H-1,2,3-triazole-4-carboxamide]
5.57	CCNC(=O)c1ccc(-n2nnc(C(=O)NC3CC3)c2-c2ccccc2)cc1 [Example 105, N-cyclopropyl-1-{4-[(ethylamino)carbonyl]phenyl}-5-phenyl-1H-1,2,3-triazole-4-carboxamide]
6.72	CCNC(=O)c1ccc(-n2nnc(C(=O)NC3CC3)c2COc2cccc(F)c2)cc1 [Example 414, N-cyclopropyl-1-{4-[(ethylamino)carbonyl]phenyl}-5-[(3-fluorophenoxy)methyl]-1H-1,2,3-triazole-4-carboxamide]

pIC50	Structure (SMILES)
6.40	CCNC(=O)c1ccc(-n2nnc(C(=O)NC3CC3)c2/C=C/c2ccccc2)cc1 [Example 106, N-cyclopropyl-1-{4-[(ethylamino)carbonyl]phenyl}-5-[(E)-2-phenylvinyl]-1H-1,2,3-triazole-4-carboxamide]
6.11	CCNC(=O)c1ccc(-n2nnc(C(=O)NC3CC3)c2CC2CCCC2)cc1 [Example 103, 5-(cyclopentylmethyl)-N-cyclopropyl-1-{4-[(ethylamino)carbonyl]phenyl}-1H-1,2,3-triazole-4-carboxamide]
5.48	CCNC(=O)c1ccc(-n2nnc(C(=O)NC3CC3)c2COc2ccc(OC)cc2)cc1 [Example 122, N-cyclopropyl-1-{4-[(ethylamino)carbonyl]phenyl}-5-[(4-methoxyphenoxy)methyl]-1H-1,2,3-triazole-4-carboxamide]
5.51	CCNC(=O)c1ccc(-n2nnc(C(=O)NC3CC3)c2CCCO)cc1 [Example 113, N-cyclopropyl-1-{4-[(ethylamino)carbonyl]phenyl}-5-(3-hydroxypropyl)-1H-1,2,3-triazole-4-carboxamide]
6.12	CCNC(=O)c1ccc(-n2nnc(C(=O)NC3CC3)c2COc2ccc(Br)cc2)cc1 [Example 116, 5-[(4-bromophenoxy)methyl]-N-cyclopropyl-1-{4-[(ethylamino)carbonyl]phenyl}-1H-1,2,3-triazole-4-carboxamide]
5.82	CCCc1c(C(=O)NC2CC2)nnn1-c1ccc(C(=O)NCC)cc1 [Example 43, N-cyclopropyl-1-{4-[(ethylamino)carbonyl]phenyl}-5-propyl-1H-1,2,3-triazole-4-carboxamide]
6.32	CCNC(=O)c1ccc(-n2nnc(C(=O)NC3CC3)c2CSc2ccccc2)cc1 [Example 130, N-cyclopropyl-1-{4-[(ethylamino)carbonyl]phenyl}-5-[(phenylthio)methyl]-1H-1,2,3-triazole-4-carboxamide]
6.12	CCCc1c(C(=O)NC2CC2)nnn1-c1ccc(NC(=O)COC)cc1 [Example 19, N-cyclopropyl-1-{4-[(methoxyacetyl)amino]phenyl}-5-propyl-1H-1,2,3-triazole-4-carboxamide]
5.92	CCNC(=O)c1ccc(-n2nnc(C(=O)NC3CC3)c2CC(C)C)cc1 [Example 93, N-cyclopropyl-1-{4-[(ethylamino)carbonyl]phenyl}-5-isobutyl-1H-1,2,3-triazole-4-carboxamide]
5.80	CCNC(=O)c1ccc(-n2nnc(C(=O)NC3CC3)c2CCC(C)C)cc1 [Example 97, N-cyclopropyl-1-{4-[(ethylamino)carbonyl]phenyl}-5-(3-methylbutyl)-1H-1,2,3-triazole-4-carboxamide]
5.85	C/C=C/c1c(C(=O)NC2CC2)nnn1-c1ccc(C(=O)NCC(F)(F)F)cc1 [Example 399, N-cyclopropyl-5-[(1E)-prop-1-en-1-yl]-1-(4-{[(2,2,2-trifluoroethyl)amino]carbonyl}phenyl)-1H-1,2,3-triazole-4-carboxamide]
5.74	CCNC(=O)c1ccc(-n2nnc(C(=O)NC3CC3)c2CC2CCCCC2)cc1 [Example 102, 5-(cyclohexylmethyl)-N-cyclopropyl-1-{4-[(ethylamino)carbonyl]phenyl}-1H-1,2,3-triazole-4-carboxamide]
6.48	CCNC(=O)c1ccc(-n2nnc(C(=O)NC3CC3)c2CCCOc2ccc(OC(F)(F)F)cc2)cc1 [Example 522, N-cyclopropyl-1-{4-[(ethylamino)carbonyl]phenyl}-5-{3-[4-(trifluoromethoxy)phenoxy]propyl}-1H-1,2,3-triazole-4-carboxamide]
5.44	CCCNC(=O)c1ccc(-n2nnc(C(=O)NC3CC3)c2CCC)cc1 [Example 55, N-cyclopropyl-5-propyl-1-{4-[(propylamino)carbonyl]phenyl}-1H-1,2,3-triazole-4-carboxamide]
7.03	CCCc1c(C(=O)NC2CC2)nnn1-c1ccc(NC(=O)CC(F)(F)F)cc1 [Example 25, N-cyclopropyl-5-propyl-1-{4-[(3,3,3-trifluoropropanoyl)amino]phenyl}-1H-1,2,3-triazole-4-carboxamide]
5.89	CCNC(=O)c1ccc(-n2nnc(C(=O)NC3CC3)c2Cc2ccccc2)cc1 [Example 99, 5-benzyl-N-cyclopropyl-1-{4-[(ethylamino)carbonyl]phenyl}-1H-1,2,3-triazole-4-carboxamide]
